# Test results from PubChem BioAssay AID248 (DTP/NCI, 2004).
# Values joined by “and” are separate entries in the source; they are usually repeats but may differ in a detail not shown here. Equal values may be shown once. Toxic doses and inconclusive results are not listed.
# Tested on: L1210 leukemia ip in BDF1 mice, survival T/C
# Experiment: NCI In Vivo Anticancer Drug Screen. Data for tumor model L1210 Leukemia (intraperitoneal) in B6D2F1 (BDF1) mice
# Conditions: endpoint: mean survival time, higher = longer survival
# Summary of the method: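 Transplantable tumor model; survival measured in treated vs vehicle control mice. Value = treated/control.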
compound,measurement,setting,value
CCOC(=O)NP(=O)(N1CC1)N1CC1,T/C,"dose: 0.16 mg/kg/injection, schedule: Q#A X Z (ip), vehicle: saline",100 % of control
same,T/C,"dose: 0.31 mg/kg/injection, schedule: Q#A X Z (ip), vehicle: saline",100 % of control
same,T/C,"dose: 0.32 mg/kg/injection, schedule: Q01DX Z (im), vehicle: saline",105 % of control
same,T/C,"dose: 0.32 mg/kg/injection, schedule: Q01DX Z (ip), vehicle: saline",102 % of control
same,T/C,"dose: 0.62 mg/kg/injection, schedule: Q#A X Z (ip), vehicle: saline",102 % of control
same,T/C,"dose: 0.63 mg/kg/injection, schedule: Q01DX Z (im), vehicle: saline",105 % of control
same,T/C,"dose: 0.63 mg/kg/injection, schedule: Q01DX Z (ip), vehicle: saline",98 % of control
same,T/C,"dose: 0.7 mg/kg/injection, schedule: Q01DX Z (ip), vehicle: carboxymethylcellulose (CMC)",101 % of control
same,T/C,"dose: 0.9 mg/kg/injection, schedule: Q03DX006 (ip), vehicle: saline",104 % of control
same,T/C,"dose: 1.25 mg/kg/injection, schedule: Q01DX Z (im), vehicle: saline",104 % of control
same,T/C,"dose: 1.25 mg/kg/injection, schedule: Q01DX Z (ip), vehicle: saline",105 % of control
same,T/C,"dose: 1.25 mg/kg/injection, schedule: Q01DX Z (oral), vehicle: saline",100 % of control
same,T/C,"dose: 1.25 mg/kg/injection, schedule: Q#A X Z (ip), vehicle: saline",121 % of control
same,T/C,"dose: 1.5 mg/kg/injection, schedule: Q01DX Z (ip), vehicle: carboxymethylcellulose (CMC)",104 % of control
same,T/C,"dose: 1.9 mg/kg/injection, schedule: Q03DX006 (ip), vehicle: saline",104 % of control
same,T/C,"dose: 2.2 mg/kg/injection, schedule: Q01DX001 (ip), vehicle: saline",101 % of control and 107 % of control
same,T/C,"dose: 2.2 mg/kg/injection, schedule: Q07DX003 (ip), vehicle: saline",105 % of control
same,T/C,"dose: 2.37 mg/kg/injection, schedule: Q01DX Z (ip), vehicle: carboxymethylcellulose (CMC)",114 % of control
same,T/C,"dose: 2.5 mg/kg/injection, schedule: Q01DX Z (im), vehicle: saline",107 % of control
same,T/C,"dose: 2.5 mg/kg/injection, schedule: Q01DX Z (ip), vehicle: saline",107 % of control
same,T/C,"dose: 2.5 mg/kg/injection, schedule: Q01DX Z (oral), vehicle: saline",107 % of control
same,T/C,"dose: 3.0 mg/kg/injection, schedule: Q01DX Z (ip), vehicle: carboxymethylcellulose (CMC)",113 % of control
same,T/C,"dose: 3.8 mg/kg/injection, schedule: Q03DX006 (ip), vehicle: saline",105 % of control
same,T/C,"dose: 4.4 mg/kg/injection, schedule: Q01DX001 (ip), vehicle: saline",102 % of control
same,T/C,"dose: 4.4 mg/kg/injection, schedule: Q07DX003 (ip), vehicle: saline",105 % of control
same,T/C,"dose: 5.0 mg/kg/injection, schedule: Q01DX006 (iv), vehicle: saline",100 % of control
same,T/C,"dose: 5.0 mg/kg/injection, schedule: Q01DX Z (oral), vehicle: saline",100 % of control
same,T/C,"dose: 5.0 mg/kg/injection, schedule: Q01DX Z (sc), vehicle: saline",120 % of control
same,T/C,"dose: 5.06 mg/kg/injection, schedule: Q01DX Z (ip), vehicle: carboxymethylcellulose (CMC)",117 % of control
same,T/C,"dose: 6.0 mg/kg/injection, schedule: Q01DX Z (ip), vehicle: carboxymethylcellulose (CMC)",158 % of control
same,T/C,"dose: 6.33 mg/kg/injection, schedule: Q01DX Z (ip), vehicle: carboxymethylcellulose (CMC)",124 % of control
same,T/C,"dose: 7.5 mg/kg/injection, schedule: Q03DX006 (ip), vehicle: saline",119 % of control
same,T/C,"dose: 8.7 mg/kg/injection, schedule: Q01DX001 (ip), vehicle: saline",108 % of control
same,T/C,"dose: 8.7 mg/kg/injection, schedule: Q07DX003 (ip), vehicle: saline",105 % of control
same,T/C,"dose: 8.75 mg/kg/injection, schedule: Q01DX001 (ip), vehicle: saline",113 % of control and 123 % of control
same,T/C,"dose: 9.5 mg/kg/injection, schedule: Q01DX Z (ip), vehicle: carboxymethylcellulose (CMC)",157 % of control
same,T/C,"dose: 10.0 mg/kg/injection, schedule: Q01DX006 (iv), vehicle: saline",105 % of control
same,T/C,"dose: 10.0 mg/kg/injection, schedule: Q01DX Z (im), vehicle: saline",160 % of control
same,T/C,"dose: 10.0 mg/kg/injection, schedule: Q01DX Z (ip), vehicle: saline",195 % of control
same,T/C,"dose: 10.0 mg/kg/injection, schedule: Q01DX Z (oral), vehicle: saline",115 % of control
same,T/C,"dose: 10.0 mg/kg/injection, schedule: Q#A X Z (ip), vehicle: saline",110 % of control
same,T/C,"dose: 12.0 mg/kg/injection, schedule: Q01DX Z (ip), vehicle: carboxymethylcellulose (CMC)",115 % of control
same,T/C,"dose: 12.66 mg/kg/injection, schedule: Q01DX Z (ip), vehicle: carboxymethylcellulose (CMC)",152 % of control
same,T/C,"dose: 15.0 mg/kg/injection, schedule: Q03DX007 (ip), vehicle: saline",182 % of control
same,T/C,"dose: 20.0 mg/kg/injection, schedule: Q01DX006 (iv), vehicle: saline",117 % of control
same,T/C,"dose: 20.0 mg/kg/injection, schedule: Q01DX Z (im), vehicle: saline",152 % of control
same,T/C,"dose: 20.0 mg/kg/injection, schedule: Q01DX Z (sc), vehicle: saline",175 % of control
same,T/C,"dose: 24.0 mg/kg/injection, schedule: Q01DX Z (ip), vehicle: carboxymethylcellulose (CMC)",94 % of control and 102 % of control
same,T/C,"dose: 30.0 mg/kg/injection, schedule: Q03DX007 (ip), vehicle: saline",165 % of control
same,T/C,"dose: 38.0 mg/kg/injection, schedule: Q01DX Z (ip), vehicle: carboxymethylcellulose (CMC)",94 % of control
same,T/C,"dose: 40.0 mg/kg/injection, schedule: Q01DX Z (im), vehicle: saline",94 % of control
same,T/C,"dose: 40.0 mg/kg/injection, schedule: Q01DX Z (ip), vehicle: saline",103 % of control
same,T/C,"dose: 40.0 mg/kg/injection, schedule: Q01DX Z (oral), vehicle: saline",155 % of control
same,T/C,"dose: 70.0 mg/kg/injection, schedule: Q07DX001 (ip), vehicle: saline",115 % of control
same,T/C,"dose: 80.0 mg/kg/injection, schedule: Q01DX Z (sc), vehicle: saline",111 % of control
same,T/C,"dose: 280.0 mg/kg/injection, schedule: Q01DX001 (ip), vehicle: saline",105 % of control
COC(=O)C1CCCN1C(=O)C1CSC(C)(C)N1C=O (centres undefined),T/C,"dose: 100.0 mg/kg/injection, schedule: Q04DX003 (ip), vehicle: saline",103 % of control
same,T/C,"dose: 200.0 mg/kg/injection, schedule: Q04DX003 (ip), vehicle: saline",92 % of control
same,T/C,"dose: 400.0 mg/kg/injection, schedule: Q04DX003 (ip), vehicle: saline",92 % of control
Cc1cccc(NC(=S)NCCc2ccccn2)c1,T/C,"dose: 100.0 mg/kg/injection, schedule: Q04DX002 (ip), vehicle: saline with Tween-80",97 % of control
same,T/C,"dose: 200.0 mg/kg/injection, schedule: Q04DX002 (ip), vehicle: saline with Tween-80",97 % of control
CN(C)c1c(F)c(F)c(N=Nc2ccccc2)c(F)c1F,T/C,"dose: 100.0 mg/kg/injection, schedule: Q01DX001 (ip), vehicle: carboxymethylcellulose (CMC)",98 % of control
same,T/C,"dose: 200.0 mg/kg/injection, schedule: Q01DX001 (ip), vehicle: carboxymethylcellulose (CMC)",114 % of control
same,T/C,"dose: 400.0 mg/kg/injection, schedule: Q01DX001 (ip), vehicle: carboxymethylcellulose (CMC)",98 % of control
OC1C2CC3C(C2)C13 (centres undefined),T/C,"dose: 100.0 mg/kg/injection, schedule: Q01DX009 (ip), vehicle: saline",102 % of control
same,T/C,"dose: 200.0 mg/kg/injection, schedule: Q01DX009 (ip), vehicle: saline",96 % of control
same,T/C,"dose: 400.0 mg/kg/injection, schedule: Q01DX009 (ip), vehicle: saline",98 % of control
C=CCc1cc(CN(CCOCC)Cc2cc(CC=C)cc(OC)c2O)c(O)c(OC)c1,T/C,"dose: 12.5 mg/kg/injection, schedule: Q04DX003 (ip), vehicle: Klucel (hydroxypropylcellulose) (HPC)",97 % of control
same,T/C,"dose: 25.0 mg/kg/injection, schedule: Q04DX003 (ip), vehicle: Klucel (hydroxypropylcellulose) (HPC)",95 % of control
same,T/C,"dose: 50.0 mg/kg/injection, schedule: Q04DX003 (ip), vehicle: Klucel (hydroxypropylcellulose) (HPC)",94 % of control
c1ccc(SCCCCSc2ccccc2)cc1,T/C,"dose: 75.0 mg/kg/injection, schedule: Q01DX009 (ip), vehicle: saline",107 % of control
same,T/C,"dose: 75.0 mg/kg/injection, schedule: Q04DX003 (ip), vehicle: saline",95 % of control
same,T/C,"dose: 150.0 mg/kg/injection, schedule: Q01DX009 (ip), vehicle: saline",90 % of control
same,T/C,"dose: 150.0 mg/kg/injection, schedule: Q04DX003 (ip), vehicle: saline",100 % of control
same,T/C,"dose: 300.0 mg/kg/injection, schedule: Q01DX009 (ip), vehicle: saline",93 % of control
same,T/C,"dose: 300.0 mg/kg/injection, schedule: Q04DX003 (ip), vehicle: saline",97 % of control
O=C1C2C(C(=O)N1c1cccc3ccccc13)C1(Cl)C(Cl)=C(Cl)C2(Cl)C1(Cl)Cl (centres undefined),T/C,"dose: 12.5 mg/kg/injection, schedule: Q01DX009 (ip), vehicle: Klucel (hydroxypropylcellulose) (HPC)",103 % of control
same,T/C,"dose: 25.0 mg/kg/injection, schedule: Q01DX009 (ip), vehicle: Klucel (hydroxypropylcellulose) (HPC)",104 % of control
same,T/C,"dose: 50.0 mg/kg/injection, schedule: Q01DX009 (ip), vehicle: Klucel (hydroxypropylcellulose) (HPC)",96 % of control
